Experimental data from patent US8791064B2, “Beta-lactoglobulin-polysaccharide nanoparticles for hydrophobic bioactive compounds” (Technion Research and Development Foundation Ltd., priority 2008, dated 2014).
Values joined by “and” are separate entries in the source; they are usually repeats but may differ in a detail not shown here. Identical values can stand only once. Like-named read-outs stand apart in the source and are kept apart here. Blank lines part the entries; values can stand above or below the molecule they belong to.

Experiments:
[1] = Electrophoretic mobility / zeta potential; format: physicochemical
Excerpt: Four criteria were used in order to evaluate the β-lactoglobulin-polysaccharide nanocomplexes and find the conditions (pH and ratio) which yield transparent suspensions containing small and stable nanoparticles: Sedimentation—Qualitative observation of the solutions in glass vials, following overnight equilibration at room temperature; Turbidity—Measured by an Ultrospec 3000 spectrophotometer (GE Healthcare, Life Sciences, UK), at 600 nm using 1 cm path cuvettes: Samples were vortexed prior to analysis; Electrophoretic mobility (EM or μe)—Measured using a zeta potential/particle size analyzer NICOMP™ 380 (Particle Sizing Systems Ltd. Santa Barbara, Calif., Agilent Technologies Inc., USA). The EM was measured under a 3 V/cm e-field at 25° C.; and Particle size—measured by Dynamic Light Scattering using the NICOMP™380 at 23° C. using 0.933 cp for the viscosity of the medium.
The stability of these colloidal systems was studied by measuring the electrophoretic mobility (EM) of the colloidal particles (FIGS. 12 and 13). Because the ionic strength of the studied systems was very low, and the particles are both very small and “soft” (being aggregates of oppositely charged polymers), the precise calculation of zeta potential from EM is not possible, due to the complexity of the system, and the limitations of currently available theoretical models. […]

[2] = cited from earlier work; for pI of β-lactoglobulin: literature value (Jameson et al., 2002)
[3] = Partition of vitamin D2 between nanocomplex pellet and serum (ultracentrifugation, RP-HPLC); format: physicochemical
Protocol: To evaluate the encapsulation of the vitamin within the nanoparticles, the partition of the vitamin between the particles and the serum was studied. For this purpose, an ultra centrifuge (15,000×g) was used to separate the nanocomplexes (pellet) from the serum (supernatant), and the concentration of vitamin D2 in the pellet was compared to that in the serum. Vitamin content of particles and serum was analyzed by solvent extraction followed by reversed phase HPLC, according to the method described in Semo et al., 2007, Food Hydrocolloids 21:936. […] Therefore, vitamin concentration in the nanoparticle pellet was 55 times higher than vitamin concentration in the serum, and 5.7 times higher than the initial concentration of the vitamin in the dispersion (13.5 μg mL^−1).

[4] = Vitamin D2 accelerated shelf-life stress test at 30° C.; format: physicochemical; settings: pH 4.25, 30° C., 125 hours
Protocol: FIG. 7: Effect of encapsulation on stability of vitamin D during an accelerated shelf-life stress test at pH 4.25: samples were stored at 30° C. in closed vials containing 10 mL of solution and 10 mL of air, for a period of 125 hours: (▪) VD2-loaded β-lactoglobulin) (▴) complexes of VD2-β-lactoglobulin-pectin (pH 4.25). (♦) control of unprotected VD2 in water.

Molecule: β-lactoglobulin: bovine β-lactoglobulin isolate (Davisco), major whey protein, 18.4 kDa
isoelectric point from electrophoretic mobility versus pH ([1]; 0.05% β-lactoglobulin alone, 25° C., low ionic strength (FIG. 13)): 5.2
zeta potential ([1]; pure β-lactoglobulin 0.05% wt, no pectin, pH 3.5 to 4.5): +6 mV
pI of β-lactoglobulin [2]: 5.18 and 5.1
pI of β-lactoglobulin ([2]; listed as lactoglobulin): 5.18

vitamin concentration in the nanoparticle pellet relative to the initial concentration in the dispersion ([3]; initial concentration 13.5 μg mL^−1): 5.7 times higher
Vitamin D2 concentration in the supernatant (serum) ([3]; β-lactoglobulin-pectin nanocomplex dispersion centrifuged at 15,000×g): 1.4 µg/mL
vitamin concentration in the nanoparticle pellet relative to the serum ([3]; β-lactoglobulin-pectin nanocomplexes): 55 times higher
Vitamin D2 concentration in the pellet ([3]; β-lactoglobulin-pectin nanocomplexes separated at 15,000×g, initial concentration 13.5 μg mL^−1): 77.26 µg/mL
degradation of the vitamin (ranking) ([4]; unprotected control, vitamin D dispersion in water): fastest degradation rate
degradation of the vitamin (ranking) ([4]; vitamin D2 in β-lactoglobulin-pectin nanocomplexes, closed vials with 10 mL air): slowest degradation
Molecule: C=C1CC[C@H](O)C/C1=C/C=C1\CCC[C@]2(C)[C@@H]([C@H](C)/C=C/[C@H](C)C(C)C)CC[C@@H]12 [Vitamin D2, ergocalciferol]

Molecule: CC/C=C\C/C=C\C/C=C\C/C=C\C/C=C\C/C=C\CCC(=O)O [DHA, docosahexaenoic acid]
pKa of DHA ([2]; Namani et al., 2007): ≈ 8.5
